The source of these data is patent US10004701B2, “Methods and compositions for treating infection” (UNIVERSITY OF ROCHESTER, priority 2012, dated 2018).

Structures can show the parent of a compound that is named as a salt. Where two headings read alike, the source gives them in different places.

Common to all, as to assay: AK assay 384-well format, Prestwick library screening
Assay [1] concerns E. faecium. It is filed as cell-based, Enterococcus faecium. To be noted: 50 μM final drug concentration; for fold induction at 50 µM: Enterococcus faecium, 3 h.
Assay [2] concerns E. coli. The class given is cell-based, Escherichia coli. The following applies: 50 μM final drug concentration; for fold induction at 50 µM: Escherichia coli, 3 h.
For assay [3], the system named is E. cloacae. It is filed as cell-based, Enterobacter cloacae. To be noted: 50 μM final drug concentration; for fold induction at 50 µM: Enterobacter cloacae, 3 h.
Assay [4] concerns A. baumannii strain 98-37-09. The class given is cell-based, Acinetobacter baumannii. To be noted: 50 μM final drug concentration; for fold induction at 50 µM: Acinetobacter baumannii, 983709, 3 h.
Assay [5] concerns P. aeruginosa. It is filed as cell-based, Pseudomonas aeruginosa. To be noted: 50 μM final drug concentration; for fold induction at 50 µM: Pseudomonas aeruginosa, 3 h.
Assay [6] relates to S. aureus strain USA300-0114. It is filed as cell-based, Staphylococcus aureus. The following applies: 50 μM final drug concentration; for fold induction at 50 µM: Staphylococcus aureus, USA300, 3 h.
The subject of assay [7] is K. pneumoniae. It is filed as cell-based, Klebsiella pneumoniae. To be noted: 50 μM final drug concentration; for fold induction at 50 µM: Klebsiella pneumoniae, 3 h.
Setting [8] is: planktonic, cutoff for positive-scoring molecules 3-fold increase, read-out: AK-based Prestwick Library Screening Results, E. faecium (fold increase in extracellular AK activity).
Setting [9] is: planktonic, cutoff for positive-scoring molecules 3-fold increase, read-out: AK-based Prestwick Library Screening Results, E. coli (fold increase in extracellular AK activity).
[10] abbreviates: planktonic, cutoff for positive-scoring molecules 3-fold increase, read-out: AK-based Prestwick Library Screening Results, E. cloacae (fold increase in extracellular AK activity).
The mark [11] stands for this setting: planktonic, cutoff for positive-scoring molecules 3-fold increase, read-out: AK-based Prestwick Library Screening Results, A. baumannii (fold increase in extracellular AK activity).
The mark [12] stands for this setting: planktonic, cutoff for positive-scoring molecules 3-fold increase, read-out: AK-based Prestwick Library Screening Results, P. aeruginosa (fold increase in extracellular AK activity).
Where [13] appears, read: planktonic, cutoff for positive-scoring molecules 3-fold increase, read-out: AK-based Prestwick Library Screening Results, S. aureus (fold increase in extracellular AK activity).
Setting [14] is: planktonic, cutoff for positive-scoring molecules 3-fold increase, read-out: AK-based Prestwick Library Screening Results, K. pneumoniae (fold increase in extracellular AK activity).
Where [15] appears, read: cutoff for positive-scoring molecules 3-fold increase, read-out: AK-based Prestwick Library Screening Results, E. faecium (fold increase in extracellular AK activity).
The mark [16] stands for this setting: cutoff for positive-scoring molecules 3-fold increase, read-out: AK-based Prestwick Library Screening Results, E. coli (fold increase in extracellular AK activity).
Setting [17] is: cutoff for positive-scoring molecules 3-fold increase, read-out: AK-based Prestwick Library Screening Results, E. cloacae (fold increase in extracellular AK activity).
Setting [18] is: cutoff for positive-scoring molecules 3-fold increase, read-out: AK-based Prestwick Library Screening Results, A. baumannii (fold increase in extracellular AK activity).
Setting [19] is: cutoff for positive-scoring molecules 3-fold increase, read-out: AK-based Prestwick Library Screening Results, P. aeruginosa (fold increase in extracellular AK activity).
[20] abbreviates: cutoff for positive-scoring molecules 3-fold increase, read-out: AK-based Prestwick Library Screening Results, S. aureus (fold increase in extracellular AK activity).
[21] abbreviates: cutoff for positive-scoring molecules 3-fold increase, read-out: AK-based Prestwick Library Screening Results, K. pneumoniae (fold increase in extracellular AK activity).

For the molecule `C/C(=C(\CCOP(=O)(O)O)SC(=O)c1ccccc1)N(C=O)Cc1cnc(C)nc1N` [Benfotiamine], the fold induction at 50 µM in assay [1] (setting [8]) is 0.9; in assay [2] (setting [9]) it was 0.7; in assay [3] (setting [10]) it was 0.8; in assay [4] (setting [11]) it was 0.7; in assay [5] (setting [12]) it was 0.6; in assay [6] (setting [13]), 0.5. Also, the fold induction at 50 µM in assay [7] (setting [14]) worked out at 0.6.
As to `CCCCOc1cc(C(=O)OCCN(CC)CC)ccc1N` [Benoxinate hydrochloride], the fold induction at 50 µM in assay [1] (planktonic E. faecium, 384-well, cutoff for positive-scoring molecules 3-fold increase, read-out: AK-based Prestwick Library Screening Results: E. faecium (increase in extracellular AK activity)) was found to be 0.9; in assay [2] (planktonic E. coli, 384-well, cutoff for positive-scoring molecules 3-fold increase, read-out: AK-based Prestwick Library Screening Results: E. coli (increase in extracellular AK activity)), 1.3; in assay [3] (planktonic E. cloacae, 384-well, cutoff for positive-scoring molecules 3-fold increase, read-out: AK-based Prestwick Library Screening Results: E. cloacae (increase in extracellular AK activity)), 1.4; in assay [4] (planktonic A. baumannii, 384-well, cutoff for positive-scoring molecules 3-fold increase, read-out: AK-based Prestwick Library Screening Results: A. baumannii (increase in extracellular AK activity)) it was 1.1; in assay [5] (planktonic P. aeruginosa, 384-well, cutoff for positive-scoring molecules 3-fold increase, read-out: AK-based Prestwick Library Screening Results: P. aeruginosa (increase in extracellular AK activity)), 0.9; in assay [6] (planktonic S. aureus, 384-well, cutoff for positive-scoring molecules 3-fold increase, read-out: AK-based Prestwick Library Screening Results: S. aureus (increase in extracellular AK activity)) it was 1. Also, the fold induction at 50 µM in assay [7] (planktonic K. pneumoniae, 384-well, cutoff for positive-scoring molecules 3-fold increase, read-out: AK-based Prestwick Library Screening Results: K. pneumoniae (increase in extracellular AK activity)) is 1.
Consider `O=C(CCCN1CCC(n2c(O)nc3ccccc32)CC1)c1ccc(F)cc1` [Benperidol], for which the fold induction at 50 µM came to 1 in assay [1] (planktonic E. faecium, cutoff for positive-scoring molecules 3-fold increase, read-out: AK-based Prestwick Library Screening Results, E. faecium (increase in extracellular AK activity)); 0.6 in assay [2] (planktonic E. coli, cutoff for positive-scoring molecules 3-fold increase, read-out: AK-based Prestwick Library Screening Results, E. coli (increase in extracellular AK activity)); 0.6 in assay [3] (planktonic E. cloacae, cutoff for positive-scoring molecules 3-fold increase, read-out: AK-based Prestwick Library Screening Results, E. cloacae (increase in extracellular AK activity)); 0.5 in assay [4] (planktonic A. baumannii, cutoff for positive-scoring molecules 3-fold increase, read-out: AK-based Prestwick Library Screening Results, A. baumannii (increase in extracellular AK activity)); 0.6 in assay [5] (planktonic P. aeruginosa, cutoff for positive-scoring molecules 3-fold increase, read-out: AK-based Prestwick Library Screening Results, P. aeruginosa (increase in extracellular AK activity)); 0.5 in assay [6] (planktonic S. aureus, cutoff for positive-scoring molecules 3-fold increase, read-out: AK-based Prestwick Library Screening Results, S. aureus (increase in extracellular AK activity)). The fold induction at 50 µM in assay [7] (planktonic K. pneumoniae, cutoff for positive-scoring molecules 3-fold increase, read-out: AK-based Prestwick Library Screening Results, K. pneumoniae (increase in extracellular AK activity)) turned out to be 0.5.
Take `NC(CO)C(=O)NNCc1ccc(O)c(O)c1O` (centres unmarked) [Benserazide hydrochloride]: the fold induction at 50 µM stood at 0.9 in assay [1] (setting [15]); 1.3 in assay [2] (setting [16]); 1.8 in assay [3] (setting [17]); 1 in assay [4] (setting [18]); 1.1 in assay [5] (setting [19]); 1.4 in assay [6] (setting [20]). Further, the fold induction at 50 µM in assay [7] (setting [21]) is 1.2.
As to `NC(=NCc1ccccc1)NC(=O)c1nc(Cl)c(N)nc1N` [Benzamil hydrochloride], the fold induction at 50 µM in assay [1] (setting [8]) worked out at 1.1; in assay [2] (setting [9]), 0.6; in assay [3] (setting [10]), 0.7; in assay [4] (setting [11]) it was 0.6; in assay [5] (setting [12]), 0.6; in assay [6] (setting [13]), 0.7. The fold induction at 50 µM in assay [7] (setting [14]) was 0.6.
With `CC1(C)S[C@@H]2[C@H](NC(=O)Cc3ccccc3)C(=O)N2[C@H]1C(=O)O.CC1(C)S[C@@H]2[C@H](NC(=O)Cc3ccccc3)C(=O)N2[C@H]1C(=O)O.c1ccc(CNCCNCc2ccccc2)cc1` [Benzathine benzylpenicillin], the “AK-based Prestwick library screening result, E. faecium (fold increase in extracellular AK activity)” value in assay [1] (planktonic E. faecium, positive cutoff 3-fold increase) was found to be 1.6. Further, the “AK-based Prestwick library screening result, E. coli (fold increase in extracellular AK activity)” value in assay [2] (planktonic E. coli, positive cutoff 3-fold increase) is 15.6. For the same molecule, the “AK-based Prestwick library screening result, E. cloacae (fold increase in extracellular AK activity)” value in assay [3] (planktonic E. cloacae, positive cutoff 3-fold increase) came to 1.6. For the same molecule, the “AK-based Prestwick library screening result, A. baumannii (fold increase in extracellular AK activity)” value in assay [4] (planktonic A. baumannii, positive cutoff 3-fold increase) was 5.9. The “AK-based Prestwick library screening result, P. aeruginosa (fold increase in extracellular AK activity)” value in assay [5] (planktonic P. aeruginosa, positive cutoff 3-fold increase) is given as 1.1. Also, the “AK-based Prestwick library screening result, S. aureus (fold increase in extracellular AK activity)” value in assay [6] (planktonic S. aureus, positive cutoff 3-fold increase) worked out at 1.0. Also, in assay [7] (planktonic K. pneumoniae, positive cutoff 3-fold increase), the “AK-based Prestwick library screening result, K. pneumoniae (fold increase in extracellular AK activity)” value came out at 1.0.
As for `CCc1oc2ccccc2c1C(=O)c1cc(Br)c(O)c(Br)c1` [Benzbromarone], the fold induction at 50 µM in assay [1] (planktonic, cutoff for positive 3-fold increase, read-out: AK-based Prestwick Library Screening Results, E. faecium (fold increase in extracellular AK activity)) was 1.2; in assay [2] (planktonic, cutoff for positive 3-fold increase, read-out: AK-based Prestwick Library Screening Results, E. coli (fold increase in extracellular AK activity)) it was 1.1; in assay [3] (planktonic, cutoff for positive 3-fold increase, read-out: AK-based Prestwick Library Screening Results, E. cloacae (fold increase in extracellular AK activity)), 1.4; in assay [4] (planktonic, cutoff for positive 3-fold increase, read-out: AK-based Prestwick Library Screening Results, A. baumannii (fold increase in extracellular AK activity)) it was 1.4; in assay [5] (planktonic, cutoff for positive 3-fold increase, read-out: AK-based Prestwick Library Screening Results, P. aeruginosa (fold increase in extracellular AK activity)) it was 1.5; in assay [6] (planktonic, cutoff for positive 3-fold increase, read-out: AK-based Prestwick Library Screening Results, S. aureus (fold increase in extracellular AK activity)), 0.4. In assay [7] (planktonic, cutoff for positive 3-fold increase, read-out: AK-based Prestwick Library Screening Results, K. pneumoniae (fold increase in extracellular AK activity)), the fold induction at 50 µM was 0.9.
On to `CCOC(=O)c1ccc(N)cc1` [Benzocaine], for which the fold induction at 50 µM in assay [1] (setting [15]) came out at 1; in assay [2] (setting [16]) it was 1.1; in assay [3] (setting [17]) it was 1.6; in assay [4] (setting [18]), 1.2; in assay [5] (setting [19]), 1.1; in assay [6] (setting [20]), 1.2. Also, the fold induction at 50 µM in assay [7] (setting [21]) was 0.9.
